The record followed here is ChEMBL document CHEMBL1136459, “New antibacterial tetrahydro-4(2H)-thiopyran and thiomorpholine S-oxide and S,S-dioxide phenyloxazolidinones” (Bioorg Med Chem Lett, 2003).

≈ marks a conversion by molar mass, not a printed value.

The subject of experiment [1] is Staphylococcus aureus. As to the kind of experiment: In vitro antibacterial activity against Staphylococcus aureus strains UC12673, UC9213, ATCC 29213, and UC9271 (SA); range is 2-8. The class given is functional.
Experiment [2] concerns Staphylococcus epidermidis. As to the kind of experiment: In vitro antibacterial activity against Staphylococcus epidermidis strains UC12084, 30031, and CDC-CNS90 (SE); range is 1-2. The experiment is classed as functional.
The subject of experiment [3] is Staphylococcus aureus. As to the kind of experiment: In vitro antibacterial activity against linezolid-resistant Staphylococcus aureus ATCC 29213 (LRSA). The class given is functional.
The next experiment deals with Enterococcus faecium. Description: In vitro antibacterial activity against vancomycin-resistant Enterococcus faecium UC12712 (VRE).
Experiment [4] relates to Moraxella catarrhalis. Description: In vitro antibacterial activity against Moraxella catarrhalis strains 30607 and 30603 (MC); range is 8-16. The experiment is classed as functional.
In experiment [5] the test system is Haemophilus influenzae. Description: In vitro antibacterial activity against Haemophilia influenzae strains ATCC 30063 and ATCC 31517. The class given is functional.
For experiment [6], the system named is Moraxella catarrhalis. As to the kind of experiment: In vitro antibacterial activity against Moraxella catarrhalis strains 30607 and 30603 (MC). The class given is functional.
For experiment [7], the system named is Staphylococcus aureus. Description: In vitro antibacterial activity against Staphylococcus aureus strains UC12673, UC9213, ATCC 29213, and UC9271 (SA); range is 4-8. The experiment is classed as functional.
In experiment [8] the test system is Streptococcus pneumoniae. As to the kind of experiment: In vitro antibacterial activity against Streptococcus pneumoniae strains ATCC6305 and 31573 (SPN).
Experiment [9] relates to Haemophilus influenzae. Description: In vitro antibacterial activity against Haemophilia influenzae strains 30063 and ATCC 31517 (HI); range is 4-8. The experiment is classed as functional.
The test system of experiment [10] is Staphylococcus epidermidis. As to the kind of experiment: In vitro antibacterial activity against Staphylococcus epidermidis strains UC12084, 30031, and CDC-CNS90 (SE). The experiment is classed as functional.
For experiment [11], the system named is Staphylococcus aureus. Description: In vitro antibacterial activity against Staphylococcus aureus strains UC12673, UC9213, ATCC 29213, and UC9271 (SA); range is 16-32. The experiment is classed as functional.
Experiment [12] relates to Moraxella catarrhalis. Description: In vitro antibacterial activity against Moraxella catarrhalis strains 30607 and 30603 (MC); range is 32->64. The experiment is classed as functional.
For experiment [13], the system named is Staphylococcus aureus. Description: In vitro antibacterial activity against Staphylococcus aureus strains UC12673, UC9213, ATCC 29213, and UC9271 (SA). The experiment is classed as functional.
In experiment [14] the test system is Haemophilus influenzae. As to the kind of experiment: In vitro antibacterial activity against Haemophilia influenzae strains 30063 and ATCC 31517 (HI); range is 8-32. The experiment is classed as functional.
Experiment [15] deals with Staphylococcus epidermidis. Description: In vitro antibacterial activity against Staphylococcus epidermidis strains UC12084, 30031, and CDC-CNS90 (SE); range is 2-4. The experiment is classed as functional.
For experiment [16], the system named is Staphylococcus epidermidis. Description: In vitro antibacterial activity against Staphylococcus epidermidis strains UC12084, 30031, and CDC-CNS90 (SE); range is 4-8. The class given is functional.
For experiment [17], the system named is Streptococcus pneumoniae. As to the kind of experiment: In vitro antibacterial activity against Streptococcus pneumoniae strains ATCC 6305 and 31573 (SPN); range is 4-8.
The test system of experiment [18] is Moraxella catarrhalis. Description: In vitro antibacterial activity against Moraxella catarrhalis strains 30607 and 30603 (MC); range is 16-32. The experiment is classed as functional.
The subject of experiment [19] is Haemophilus influenzae. As to the kind of experiment: In vitro antibacterial activity against Haemophilia influenzae strains 30063 and ATCC 31517 (HI); range is 32->64. The class given is functional.
For experiment [20], the system named is Streptococcus pneumoniae. As to the kind of experiment: In vitro antibacterial activity against Streptococcus pneumoniae strains ATCC 6305 and 31573 (SPN); range is 0.5-1.
The subject of experiment [21] is Staphylococcus aureus. Description: In vitro antibacterial activity against Staphylococcus aureus strains UC12673, UC9213, ATCC 29213, and UC9271 (SA); range is 2-4. The experiment is classed as functional.
A further experiment deals with Mus musculus. Description: In vivo Efficacy of compound after peroral administration in mouse. Particulars: po. The experiment is classed as functional.
The subject of experiment [22] is Staphylococcus aureus. Description: In vitro antibacterial activity against Staphylococcus aureus strains UC12673, UC9213, ATCC 29213, and UC9271 (SA); range is 8-32. The experiment is classed as functional.
Experiment [23] has as its system Haemophilus influenzae. Description: In vitro antibacterial activity against Haemophilia influenzae strains 30063 and ATCC 31517 (HI); range is 32-64. The experiment is classed as functional.

In the case of `O=C(/C=C/c1ccc(O)cc1)NC[C@H]1CN(c2ccc(C3CC[S+]([O-])CC3)c(F)c2)C(=O)O1` (some centres not stated), the MIC was 2 µg/mL (≈ 4.23 µM) in the experiment on Staphylococcus aureus [1]; 1 µg/mL (≈ 2.12 µM) in experiment [2]; greater than 64 µg/mL in the experiment with Staphylococcus aureus [3]; 4 µg/mL (≈ 8.46 µM) in the experiment on Enterococcus faecium; 8 µg/mL (≈ 16.9 µM) with Moraxella catarrhalis [4]; greater than 64 µg/mL in the experiment with Haemophilus influenzae [5].

With `CC(=O)NC[C@H]1CN(c2ccc(N3CC[S+]([O-])CC3)c(F)c2)C(=O)O1`, the MIC is 4 µg/mL (≈ 10.8 µM) in the experiment on Moraxella catarrhalis [6]; 1 µg/mL (≈ 2.71 µM) in experiment [2]; 4 µg/mL (≈ 10.8 µM) in the experiment on Staphylococcus aureus [7]; 1 µg/mL (≈ 2.71 µM) against Streptococcus pneumoniae [8]; greater than 64 µg/mL in the experiment on Staphylococcus aureus [3]; 2 µg/mL (≈ 5.41 µM) against Enterococcus faecium. In addition, in the experiment with Haemophilus influenzae [9], the MIC is greater than 4 µg/mL.

For the molecule `CC(=O)Nc1ccc(/C=C/C(=O)NC[C@H]2CN(c3ccc(N4CC[S+]([O-])CC4)c(F)c3)C(=O)O2)cc1`, the MIC was 16 µg/mL (≈ 31.1 µM) against Moraxella catarrhalis [6]; 1 µg/mL (≈ 1.94 µM) in experiment [2]; 4 µg/mL (≈ 7.77 µM) in the experiment with Staphylococcus aureus [7]; greater than 64 µg/mL in the experiment on Staphylococcus aureus [3]; 8 µg/mL (≈ 15.5 µM) against Enterococcus faecium; greater than 64 µg/mL with Haemophilus influenzae [5].

As for `O=C(NC[C@H]1CN(c2ccc(N3CC[S+]([O-])CC3)c(F)c2)C(=O)O1)C1CC1`, the MIC in experiment [10] was 4 µg/mL (≈ 10.1 µM); in the experiment on Staphylococcus aureus [11] it was 16 µg/mL (≈ 40.5 µM); with Staphylococcus aureus [3] it was 64 µg/mL (≈ 162 µM); against Enterococcus faecium, 4 µg/mL (≈ 10.1 µM); with Moraxella catarrhalis [4], 8 µg/mL (≈ 20.2 µM); against Haemophilus influenzae [5] it was 32 µg/mL (≈ 80.9 µM).

`O=C1O[C@@H](CNC(=O)C(F)(F)F)CN1c1ccc(N2CCS(=O)(=O)CC2)c(F)c1`: the MIC was 8 µg/mL (≈ 18.2 µM) in experiment [10]; 32 µg/mL (≈ 72.8 µM) in the experiment with Moraxella catarrhalis [12]; 16 µg/mL (≈ 36.4 µM) against Staphylococcus aureus [11]; 16 µg/mL (≈ 36.4 µM) in the experiment on Staphylococcus aureus [3]; 16 µg/mL (≈ 36.4 µM) with Enterococcus faecium; no less than 64 µg/mL in the experiment with Haemophilus influenzae [5].

`O=C1O[C@@H](CNC(=O)C(F)(F)F)CN1c1ccc(C2CC[S+]([O-])CC2)c(F)c1` (some centres not stated): the MIC is 8 µg/mL (≈ 18.9 µM) against Staphylococcus aureus [13]; 8 µg/mL (≈ 18.9 µM) against Moraxella catarrhalis [6]; 8 µg/mL (≈ 18.9 µM) with Haemophilus influenzae [14]; 2 µg/mL (≈ 4.73 µM) in experiment [15]; 32 µg/mL (≈ 75.8 µM) against Staphylococcus aureus [3]; 4 µg/mL (≈ 9.47 µM) against Enterococcus faecium.

With `COCC(=O)NC[C@H]1CN(c2ccc(N3CC[S+]([O-])CC3)c(F)c2)C(=O)O1`, the MIC in experiment [16] was 4 µg/mL (≈ 10 µM); against Streptococcus pneumoniae [17], 4 µg/mL (≈ 10 µM); in the experiment with Moraxella catarrhalis [18], 16 µg/mL (≈ 40.1 µM); against Staphylococcus aureus [11], 16 µg/mL (≈ 40.1 µM); against Staphylococcus aureus [3], greater than 64 µg/mL; in the experiment on Enterococcus faecium, 16 µg/mL (≈ 40.1 µM). The same molecule returned an MIC in the experiment on Haemophilus influenzae [19] of 32 µg/mL (≈ 80.1 µM).

As to `CC(=O)NC[C@H]1CN(c2ccc(N3CCS(=O)(=O)CC3)c(F)c2)C(=O)O1`, the MIC with Staphylococcus aureus [13] turned out to be 4 µg/mL (≈ 10.4 µM); with Moraxella catarrhalis [6], 4 µg/mL (≈ 10.4 µM); against Streptococcus pneumoniae [20], 0.5 µg/mL (≈ 1.3 µM); in [10], 1 µg/mL (≈ 2.59 µM); against Staphylococcus aureus [3] it was 64 µg/mL (≈ 166 µM); in the experiment with Enterococcus faecium it was 2 µg/mL (≈ 5.19 µM). The molecule further showed an MIC against Haemophilus influenzae [9] of 4 µg/mL (≈ 10.4 µM).

In the case of `O=C(NC[C@H]1CN(c2ccc(N3CC[S+]([O-])CC3)c(F)c2)C(=O)O1)c1csnn1`, the MIC in experiment [10] is 8 µg/mL (≈ 18.2 µM); in the experiment with Moraxella catarrhalis [12] it was 32 µg/mL (≈ 72.8 µM); in the experiment on Staphylococcus aureus [11] it was 16 µg/mL (≈ 36.4 µM); against Staphylococcus aureus [3], greater than 64 µg/mL; in the experiment on Enterococcus faecium it was 16 µg/mL (≈ 36.4 µM); against Haemophilus influenzae [5], 64 µg/mL (≈ 146 µM).

Take `O=C(CF)NC[C@H]1CN(c2ccc(C3CC[S+]([O-])CC3)c(F)c2)C(=O)O1` (some centres not stated): the MIC stood at 8 µg/mL (≈ 20.7 µM) against Moraxella catarrhalis [6]; 1 µg/mL (≈ 2.59 µM) in experiment [2]; 0.5 µg/mL (≈ 1.29 µM) in the experiment with Streptococcus pneumoniae [20]; 2 µg/mL (≈ 5.18 µM) in the experiment on Staphylococcus aureus [21]; 32 µg/mL (≈ 82.8 µM) in the experiment with Staphylococcus aureus [3]; 4 µg/mL (≈ 10.4 µM) against Enterococcus faecium. The MIC in the experiment with Haemophilus influenzae [9] came out at 4 µg/mL (≈ 10.4 µM). Further, in the experiment on Mus musculus, the ED50 (as a rule, the dose at which the effect has come halfway, by size or by number of responders) is 3.75 mg/kg.

As for `O=C(NC[C@H]1CN(c2ccc(N3CCS(=O)(=O)CC3)c(F)c2)C(=O)O1)c1csnn1`, the MIC in the experiment with Staphylococcus aureus [22] is 8 µg/mL (≈ 17.6 µM); in experiment [16] it was 4 µg/mL (≈ 8.78 µM); with Streptococcus pneumoniae [17] it was 4 µg/mL (≈ 8.78 µM); in the experiment with Moraxella catarrhalis [6], 32 µg/mL (≈ 70.3 µM); against Staphylococcus aureus [3], 32 µg/mL (≈ 70.3 µM); with Enterococcus faecium it was 16 µg/mL (≈ 35.1 µM). The MIC in the experiment on Haemophilus influenzae [23] is 32 µg/mL (≈ 70.3 µM).
